# Measurements reported in patent publication US7183291B2 (Council of Scientific and Industrial Research, priority 1999, dated 2007).
# “And” between values parts separate entries of the source, which are not always exact repeats. Identical values can stand only once.
# System: P. cynomolgi B gametocytes
# Test: Gametocytocidal test: infectivity of gametocytes from treated P. cynomolgi infected Rhesus monkeys to An. stephensi mosquitoes
# Assay type: in vivo
# Experimental: For the gametocytocidal test, batches of 3–4 day old An. Stephensi were allowed to feed on P. cynomolgi infected Rhesus monkeys at appropriate gametocytaemia level. […] […] Mosquitoes were maintained as 26±1° C. under optimal insectary conditions. The infectivity rate and the oocyst counts were recorded on day 8. Mosquitoes were further maintained in the insectary to record the formation of sporozoites and the absence of sporozoites in some of the batches was also ensured by inoculation of mosquito homogenates into native monkeys.
# [1] = 0.63 mg/kg single dose, feeding +5 hr
# [2] = 0.63 mg/kg single dose, feeding +24 hr
# [3] = 0.63 mg/kg single dose, feeding +48 hr
# [4] = 0.63 mg/kg single dose, feeding −1 hr (pre-treatment)
# [5] = 1.25 mg/kg single dose, feeding +5 hr
# [6] = 1.25 mg/kg single dose, feeding +24 hr
# [7] = 1.25 mg/kg single dose, feeding +48 hr
# [8] = 1.25 mg/kg single dose, feeding −1 hr (pre-treatment)
# [9] = 1.87 mg/kg single dose, feeding +24 hr
# [10] = 1.87 mg/kg single dose, feeding +48 hr
smiles,measurement,setting,value
"COc1cc(NC(C)CCCN/C(C)=C2/CCOC2=O)c2ncccc2c1 (stereo not shown) [compound 1, N^1-(3-ethylidinotetrahydrofuran-2-one)-N^4-(6-methoxy-8-quinolinyl)-1,4-pentanediamine]",% infectivity,[1],(45.1) %
same,No. of mosquitoes infected/dissected,[1],23/51
same,Oocyst No. per gut (Mean ± SD),[1],10.22 ± 6.8
same,% infectivity,[2],(32.61) %
same,No. of mosquitoes infected/dissected,[2],15/46
same,Oocyst No. per gut (Mean ± SD),[2],2.93 ± 2.4
same,Parasitaemia/mm^3 Asexual,[2],30024 /mm^3
same,Parasitaemia/mm^3 Gametocytes,[2],1404 /mm^3
same,% infectivity,[3],(0) %
same,No. of mosquitoes infected/dissected,[3],0/24
same,Oocyst No. per gut (Mean ± SD),[3],Nil
same,Parasitaemia/mm^3 Asexual,[3],23220 /mm^3
same,Parasitaemia/mm^3 Gametocytes,[3],756 /mm^3
same,% infectivity,[4],(90.0) %
same,No. of mosquitoes infected/dissected,[4],27/30
same,Oocyst No. per gut (Mean ± SD),[4],86.74 ± 39.2
same,Parasitaemia/mm^3 Asexual,[4],48816 /mm^3
same,Parasitaemia/mm^3 Gametocytes,[4],1728 /mm^3
same,oocyst number and percent infectivity compared to control feedings at −1 hr,"0.63 mg/kg, +5 h and +24 h post-treatment",significant reduction
same,sporozoites in salivary gland dissections on day 15,"0.63 mg/kg, batches fed +5 h and +24 h",presence of sporozoites
same,oocysts over the midguts,"0.63 mg/kg, mosquitoes fed at +48 hr",No oocysts were observed
same,monkeys with marked oocyst decrease at 4–5 hr and no oocysts or sporozoites in batches fed +24 hr and +48 hr,1.25 mg/kg,2/2
same,No. of mosquitoes infected/dissected,[5],12/57 and 15/70
same,Oocyst No. per gut (Mean ± SD),[5],2.17 ± 1.7 and 2.60 ± 1.7
same,% infectivity,[6],(0) %
same,No. of mosquitoes infected/dissected,[6],0/36 and 0/30
same,Oocyst No. per gut (Mean ± SD),[6],Nil
same,% infectivity,[7],(0) %
same,No. of mosquitoes infected/dissected,[7],0/24
same,Oocyst No. per gut (Mean ± SD),[7],Nil
same,Parasitaemia/mm^3 Asexual,[7],15914 /mm^3
same,Parasitaemia/mm^3 Gametocytes,[7],109 /mm^3
same,No. of mosquitoes infected/dissected,[8],34/38 and 20/47
same,Oocyst No. per gut (Mean ± SD),[8],22.35 ± 11.8 and 14.40 ± 7.29
same,Parasitaemia/mm^3 Gametocytes,[8],1895 /mm^3 and 1026 /mm^3
same,monkeys with marked oocyst decrease at 4–5 hr and no oocysts or sporozoites in batches fed +24 hr and +48 hr,1.87 mg/kg,2/2
same,No. of mosquitoes infected/dissected,"1.87 mg/kg single dose, feeding +4 hr",6/40 and 18/31
same,% infectivity,[9],(0) %
same,No. of mosquitoes infected/dissected,[9],0/27 and 0/38
same,Oocyst No. per gut (Mean ± SD),[9],Nil and Nil**
same,Parasitaemia/mm^3 Gametocytes,[9],530 /mm^3 and 798 /mm^3
same,% infectivity,[10],(0) %
same,No. of mosquitoes infected/dissected,[10],0/24 and 0/21
same,Oocyst No. per gut (Mean ± SD),[10],Nil
same,Parasitaemia/mm^3 Asexual,[10],7208 /mm^3 and 5130 /mm^3
same,Parasitaemia/mm^3 Gametocytes,[10],212 /mm^3 and 228 /mm^3
